From patent US7498340B2, “Esters in position 20 of camptothecins” (priority 2002, dated 2009)
Structures can show the parent of a compound that is named as a salt. Where two headings read alike, the source gives them in different places.

System: NCI-H460
[1] = read-out: NCI-H460 IC50, 2 h exposure, then 72 h recovery, concentration inhibiting 50% of cell survival, ALLFIT software

| Compound | IC50 [1] | IC50 (read-out: Cytotoxicity test on H460 cells: IC50, H460 cells, printed as 42 nM±6) |
| --- | --- | --- |
| 20-O-(2-methoxyphenylglycyl)succinyl-camptothecin [ST1454] | 160 nM |  |
| 7-ter-butoxyiminomethyl-20-O-(2-methoxy-phenyl-glycyl)succinyl-camptothecin [ST1617] | 29 nM |  |
| CC[C@@]1(OC(=O)CCCBr)C(=O)OCc2c1cc1n(c2=O)Cc2c-1nc1ccccc1c2/C=N/OC(C)(C)C [ST2599, (E)-7-tert-butoxyiminomethyl-20-O-(4-bromo)-butyryl-camptothecin] |  | 42 nM |
| CC[C@@]1(OC(=O)CCC(=O)NCC(=O)OC(C)(C)C)C(=O)OCc2c1cc1n(c2=O)Cc2c-1nc1ccccc1c2C=NOC(C)(C)C [ST1616, 7-ter-butoxyiminomethyl-20-O-(terbutylglycyl)succinyl-camptothecin] | 4 nM |  |
| CCC1(OC(=O)CCC(=O)NCCN(C)C)C(=O)OCc2c1cc1n(c2=O)Cc2c-1nc1ccccc1c2C=NOC(C)(C)C (stereo not shown) [ST1657, (E)-7-tert-butoxyiminomethyl-20-O-[2-(dimethylamino)ethylamino]succinyl-camptothecin hydrochloride] | 12 nM |  |
| (E)-7-tert-butoxyiminomethyl-20-O-(4-trimethyl-ammonium-3-hydroxy)butanoyl-camptothecin bromide [ST2204] | 41 nM |  |
| CC[C@@]1(OC(=O)CCC(=O)NCC(=O)O)C(=O)OCc2c1cc1n(c2=O)Cc2cc3ccccc3nc2-1 [ST1452, 20-O-(glycyl)succinyl-camptothecin] | 1600 nM |  |
| 20-O-(terbutylglycyl)succinyl-camptothecin bromide [ST1453] | 260 nM |  |
| CCC1(OC(=O)CCC[N+](C)(C)C)C(=O)OCc2c1cc1n(c2=O)Cc2c-1nc1ccccc1c2C=NOC(C)(C)C (stereo not shown) [ST2200, (E)-7-tert-butoxyiminomethyl-20-O-(4-trimethylammonium)-butanoyl-camptothecin bromide] | 17 nM |  |
| 20-O-(benzylglycyl)succinyl-camptothecin [ST1451] | 150 nM |  |
